Experimental findings from PMC11274654 (Biomedicines, 2024) are described below.

The subject of the test is Rat Calvarial Osteoblasts (RCOs). In words: ALP assay (osteoblast differentiation) in rat calvarial osteoblasts. In kind it is cell-based. As to conditions: for Activity in ALP Assay (Positive/Negative) / Effect on ALP activity compared to the control (vehicle): 48 h; for EC50: Rattus norvegicus, Calvarial osteoblast, 48 h in osteoblast differentiation media. The protocol: Sequential digestion was performed to isolate calvarial osteoblast cells from neonatal rat pups. Briefly, calvariae were harvested from ten to twelve 1–2-day old rat pups, cleaned, and subjected to five sequential enzymatic digestions (0.1% dispase and 0.1% collagenase I) of 10–15 min each, followed by culturing of the harvested cells in α-MEM supplemented with 10% FBS [22].
RCOs were seeded in 24-well plates (1 × 10^4 cells/well), and the cells were treated for 48 h in osteoblast differentiation media (α-MEM supplemented with 10 mM β-glycerophosphate and 50 μg/mL ascorbic acid) with the imidazole group of chemicals (10^−11 M–10^−6 M).
A total of 2 mg/mL of para-Nitrophenyl phosphate in diethanolamine buffer was used to measure the ALP activity at a 405 nm wavelength.

On to `Cc1ncc([N+](=O)[O-])n1CC(O)CCl` (stereo not drawn) [Ornidazole], for which the “Activity in ALP Assay (Positive/Negative)” value was “Negative”, the “Effect on ALP activity compared to the control (vehicle)” value was “no effect” and the EC50 is over 10 µM.
In the case of `O=C(Cn1ccnc1[N+](=O)[O-])NCCO` [Etanidazole], the “Activity in ALP Assay (Positive/Negative)” value is listed as “Positive”, the “Effect on ALP activity compared to the control (vehicle)” value is “significantly increased” and the EC50 turned out to be 0.4 µM.
On to `Cn1c([N+](=O)[O-])cnc1COC(N)=O` [Ronidazole], for which the “Activity in ALP Assay (Positive/Negative)” value was “Negative”, the “Effect on ALP activity compared to the control (vehicle)” value was “no effect” and the EC50 was over 10 µM.
As to `Cc1ncc([N+](=O)[O-])n1CC(C)O` (stereo not drawn) [Secnidazole], the “Activity in ALP Assay (Positive/Negative)” value is listed as “Negative”, the “Effect on ALP activity compared to the control (vehicle)” value is given as “no effect” and the EC50 is over 10 µM.
On to `CCS(=O)(=O)CCn1c([N+](=O)[O-])cnc1C` [Tinidazole], for which the “Activity in ALP Assay (Positive/Negative)” value was “Negative”, the “Effect on ALP activity compared to the control (vehicle)” value is “no effect” and the EC50 was over 10 µM.
